According to doi:10.1101/2023.11.24.568596v1 (biorxiv, 2023):
Each block holds one compound with its values, some of them ahead of it.

What was measured:
Settings in all cases: binder
[1] = molecular target: MSK1b (Homo sapiens, UniProt O75582)
[2] = molecular target: SRPK1 (Homo sapiens, UniProt Q96SB4)
[3] = molecular target: MRCKa (Homo sapiens, UniProt Q5VT25)
[4] = molecular target: T1, TTK (Homo sapiens, UniProt P33981)
T1 sequence (P33981 1-857): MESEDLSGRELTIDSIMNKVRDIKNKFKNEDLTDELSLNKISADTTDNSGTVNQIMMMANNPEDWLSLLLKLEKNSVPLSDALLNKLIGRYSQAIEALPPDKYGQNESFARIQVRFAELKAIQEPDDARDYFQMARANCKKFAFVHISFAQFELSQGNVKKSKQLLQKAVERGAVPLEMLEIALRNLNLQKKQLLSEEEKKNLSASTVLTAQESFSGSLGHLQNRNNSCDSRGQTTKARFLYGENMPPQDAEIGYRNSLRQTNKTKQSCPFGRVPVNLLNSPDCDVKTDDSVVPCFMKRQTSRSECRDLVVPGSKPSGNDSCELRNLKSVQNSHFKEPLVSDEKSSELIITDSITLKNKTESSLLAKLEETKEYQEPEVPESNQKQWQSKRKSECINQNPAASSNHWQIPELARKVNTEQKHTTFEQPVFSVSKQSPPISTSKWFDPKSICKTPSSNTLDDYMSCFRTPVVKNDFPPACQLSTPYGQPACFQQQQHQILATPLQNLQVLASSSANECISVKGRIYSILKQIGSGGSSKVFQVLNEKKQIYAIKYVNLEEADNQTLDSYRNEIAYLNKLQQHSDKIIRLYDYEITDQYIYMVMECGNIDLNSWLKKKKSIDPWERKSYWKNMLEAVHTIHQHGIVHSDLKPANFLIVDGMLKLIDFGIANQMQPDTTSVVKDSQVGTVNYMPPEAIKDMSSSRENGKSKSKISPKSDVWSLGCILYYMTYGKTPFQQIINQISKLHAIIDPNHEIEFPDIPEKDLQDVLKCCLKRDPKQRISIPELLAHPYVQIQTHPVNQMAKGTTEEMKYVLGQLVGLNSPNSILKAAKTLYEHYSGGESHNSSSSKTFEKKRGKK

[5] = molecular target: FGFR1 (Homo sapiens, UniProt P11362)
[6] = molecular target: NEK7 (Homo sapiens, UniProt Q8TDX7)
[7] = molecular target: p38a (Homo sapiens, UniProt Q16539)
[8] = molecular target: CaMK1d (Homo sapiens, UniProt Q8IU85)
CaMK1d, sequence (Q8IU85 whole entry): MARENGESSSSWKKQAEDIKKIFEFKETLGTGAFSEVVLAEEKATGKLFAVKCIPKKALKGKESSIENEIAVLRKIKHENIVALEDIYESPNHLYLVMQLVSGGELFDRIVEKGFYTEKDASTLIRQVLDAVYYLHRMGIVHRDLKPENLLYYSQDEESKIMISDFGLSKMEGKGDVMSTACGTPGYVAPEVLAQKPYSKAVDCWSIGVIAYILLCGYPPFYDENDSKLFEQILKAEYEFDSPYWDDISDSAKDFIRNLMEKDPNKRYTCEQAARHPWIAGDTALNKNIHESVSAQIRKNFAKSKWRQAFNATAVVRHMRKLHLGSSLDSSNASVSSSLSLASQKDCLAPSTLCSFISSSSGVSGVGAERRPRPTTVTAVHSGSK

[9] = molecular target: T2, MAP2K4 (Homo sapiens, UniProt P45985)
T2 sequence (P45985 1-399): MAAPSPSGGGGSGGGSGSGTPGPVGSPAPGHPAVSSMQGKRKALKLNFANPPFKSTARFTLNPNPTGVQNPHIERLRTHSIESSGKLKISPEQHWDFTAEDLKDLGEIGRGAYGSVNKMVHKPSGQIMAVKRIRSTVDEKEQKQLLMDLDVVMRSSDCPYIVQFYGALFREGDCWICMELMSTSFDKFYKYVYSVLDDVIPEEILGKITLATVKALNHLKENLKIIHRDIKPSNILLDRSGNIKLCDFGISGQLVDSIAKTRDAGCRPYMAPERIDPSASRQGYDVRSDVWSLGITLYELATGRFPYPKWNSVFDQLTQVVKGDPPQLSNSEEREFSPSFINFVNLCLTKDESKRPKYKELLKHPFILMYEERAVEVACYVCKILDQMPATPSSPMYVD

[10] = molecular target: EphA7 (Homo sapiens, UniProt Q15375)
EphA7, sequence (Q15375 whole entry): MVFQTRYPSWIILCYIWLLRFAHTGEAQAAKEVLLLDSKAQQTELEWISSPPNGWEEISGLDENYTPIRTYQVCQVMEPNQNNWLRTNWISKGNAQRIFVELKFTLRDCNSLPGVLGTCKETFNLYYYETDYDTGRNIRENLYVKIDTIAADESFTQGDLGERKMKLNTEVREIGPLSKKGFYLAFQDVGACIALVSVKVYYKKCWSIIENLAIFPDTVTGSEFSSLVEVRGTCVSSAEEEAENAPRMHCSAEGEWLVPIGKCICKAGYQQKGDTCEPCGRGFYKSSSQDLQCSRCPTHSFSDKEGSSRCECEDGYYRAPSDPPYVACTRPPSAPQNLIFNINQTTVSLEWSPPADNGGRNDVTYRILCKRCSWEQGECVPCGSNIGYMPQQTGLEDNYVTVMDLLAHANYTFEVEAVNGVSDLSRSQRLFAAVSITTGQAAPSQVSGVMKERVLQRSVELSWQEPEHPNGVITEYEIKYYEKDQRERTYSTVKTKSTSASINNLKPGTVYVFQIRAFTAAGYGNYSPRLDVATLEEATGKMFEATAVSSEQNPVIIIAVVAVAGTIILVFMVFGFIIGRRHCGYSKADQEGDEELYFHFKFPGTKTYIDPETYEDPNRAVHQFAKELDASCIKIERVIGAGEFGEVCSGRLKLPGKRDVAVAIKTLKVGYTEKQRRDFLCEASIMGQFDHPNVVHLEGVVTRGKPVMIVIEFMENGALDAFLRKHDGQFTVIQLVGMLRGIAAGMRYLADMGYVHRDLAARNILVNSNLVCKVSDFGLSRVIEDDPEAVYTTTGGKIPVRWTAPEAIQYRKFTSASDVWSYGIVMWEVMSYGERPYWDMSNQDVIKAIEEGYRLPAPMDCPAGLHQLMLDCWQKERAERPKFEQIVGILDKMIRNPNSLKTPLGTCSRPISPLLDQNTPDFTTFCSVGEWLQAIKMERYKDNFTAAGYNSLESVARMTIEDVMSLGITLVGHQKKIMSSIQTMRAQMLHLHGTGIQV

[11] = molecular target: JNK2 (Homo sapiens, UniProt P45984)
JNK2, sequence (P45984 whole entry): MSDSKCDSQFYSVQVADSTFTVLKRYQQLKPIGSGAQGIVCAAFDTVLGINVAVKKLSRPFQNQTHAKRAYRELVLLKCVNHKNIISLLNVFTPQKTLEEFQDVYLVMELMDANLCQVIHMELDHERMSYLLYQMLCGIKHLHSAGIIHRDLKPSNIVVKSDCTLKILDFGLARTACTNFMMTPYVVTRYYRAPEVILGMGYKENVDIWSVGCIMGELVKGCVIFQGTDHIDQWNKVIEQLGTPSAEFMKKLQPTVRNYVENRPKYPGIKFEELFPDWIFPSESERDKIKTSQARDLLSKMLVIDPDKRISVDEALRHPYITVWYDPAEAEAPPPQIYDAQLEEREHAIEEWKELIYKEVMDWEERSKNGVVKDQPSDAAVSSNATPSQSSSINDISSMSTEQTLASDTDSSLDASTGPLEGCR

[12] = molecular target: Wnk1 (Homo sapiens, UniProt Q9H4A3)

SRPK1, sequence (Q96SB4 whole entry): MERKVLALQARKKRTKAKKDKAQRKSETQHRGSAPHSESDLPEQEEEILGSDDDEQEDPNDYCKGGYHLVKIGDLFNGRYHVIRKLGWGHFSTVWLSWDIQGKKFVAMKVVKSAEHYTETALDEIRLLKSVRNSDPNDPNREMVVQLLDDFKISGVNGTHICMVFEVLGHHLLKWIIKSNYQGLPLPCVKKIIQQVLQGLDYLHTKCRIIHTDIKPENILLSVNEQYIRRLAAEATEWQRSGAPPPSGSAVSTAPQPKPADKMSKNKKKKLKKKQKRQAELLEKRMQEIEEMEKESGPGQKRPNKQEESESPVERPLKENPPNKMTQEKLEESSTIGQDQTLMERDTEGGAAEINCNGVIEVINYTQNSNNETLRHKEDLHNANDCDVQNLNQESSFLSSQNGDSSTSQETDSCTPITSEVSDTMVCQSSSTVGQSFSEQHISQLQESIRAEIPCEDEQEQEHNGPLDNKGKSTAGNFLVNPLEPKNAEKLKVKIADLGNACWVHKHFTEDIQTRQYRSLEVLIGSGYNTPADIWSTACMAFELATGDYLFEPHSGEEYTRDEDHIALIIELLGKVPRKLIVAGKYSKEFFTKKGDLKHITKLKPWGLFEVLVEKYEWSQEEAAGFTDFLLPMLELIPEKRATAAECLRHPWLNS
MSK1b, sequence (O75582 whole entry): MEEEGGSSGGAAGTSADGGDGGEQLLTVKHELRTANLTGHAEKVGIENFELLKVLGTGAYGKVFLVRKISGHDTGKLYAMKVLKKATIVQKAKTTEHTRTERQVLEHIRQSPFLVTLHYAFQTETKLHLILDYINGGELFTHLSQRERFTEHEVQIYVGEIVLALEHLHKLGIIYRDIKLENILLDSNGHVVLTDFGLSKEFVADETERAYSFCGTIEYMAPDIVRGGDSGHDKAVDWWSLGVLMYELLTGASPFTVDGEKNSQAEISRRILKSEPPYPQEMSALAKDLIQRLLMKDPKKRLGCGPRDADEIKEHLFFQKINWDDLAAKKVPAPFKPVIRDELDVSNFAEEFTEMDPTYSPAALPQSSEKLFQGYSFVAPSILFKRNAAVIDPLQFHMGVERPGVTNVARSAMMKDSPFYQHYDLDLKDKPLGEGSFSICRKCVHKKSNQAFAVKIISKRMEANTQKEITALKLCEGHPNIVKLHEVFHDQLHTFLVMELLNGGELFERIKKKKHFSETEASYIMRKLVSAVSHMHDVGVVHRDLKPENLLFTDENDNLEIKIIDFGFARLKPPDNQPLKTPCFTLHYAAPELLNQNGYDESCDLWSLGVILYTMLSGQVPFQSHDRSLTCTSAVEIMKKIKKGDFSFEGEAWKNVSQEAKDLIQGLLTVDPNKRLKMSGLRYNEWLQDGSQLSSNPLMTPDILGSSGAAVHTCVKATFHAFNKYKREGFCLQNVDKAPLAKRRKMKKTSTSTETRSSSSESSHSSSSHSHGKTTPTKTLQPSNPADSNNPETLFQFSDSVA
MRCKa, sequence (Q5VT25 whole entry): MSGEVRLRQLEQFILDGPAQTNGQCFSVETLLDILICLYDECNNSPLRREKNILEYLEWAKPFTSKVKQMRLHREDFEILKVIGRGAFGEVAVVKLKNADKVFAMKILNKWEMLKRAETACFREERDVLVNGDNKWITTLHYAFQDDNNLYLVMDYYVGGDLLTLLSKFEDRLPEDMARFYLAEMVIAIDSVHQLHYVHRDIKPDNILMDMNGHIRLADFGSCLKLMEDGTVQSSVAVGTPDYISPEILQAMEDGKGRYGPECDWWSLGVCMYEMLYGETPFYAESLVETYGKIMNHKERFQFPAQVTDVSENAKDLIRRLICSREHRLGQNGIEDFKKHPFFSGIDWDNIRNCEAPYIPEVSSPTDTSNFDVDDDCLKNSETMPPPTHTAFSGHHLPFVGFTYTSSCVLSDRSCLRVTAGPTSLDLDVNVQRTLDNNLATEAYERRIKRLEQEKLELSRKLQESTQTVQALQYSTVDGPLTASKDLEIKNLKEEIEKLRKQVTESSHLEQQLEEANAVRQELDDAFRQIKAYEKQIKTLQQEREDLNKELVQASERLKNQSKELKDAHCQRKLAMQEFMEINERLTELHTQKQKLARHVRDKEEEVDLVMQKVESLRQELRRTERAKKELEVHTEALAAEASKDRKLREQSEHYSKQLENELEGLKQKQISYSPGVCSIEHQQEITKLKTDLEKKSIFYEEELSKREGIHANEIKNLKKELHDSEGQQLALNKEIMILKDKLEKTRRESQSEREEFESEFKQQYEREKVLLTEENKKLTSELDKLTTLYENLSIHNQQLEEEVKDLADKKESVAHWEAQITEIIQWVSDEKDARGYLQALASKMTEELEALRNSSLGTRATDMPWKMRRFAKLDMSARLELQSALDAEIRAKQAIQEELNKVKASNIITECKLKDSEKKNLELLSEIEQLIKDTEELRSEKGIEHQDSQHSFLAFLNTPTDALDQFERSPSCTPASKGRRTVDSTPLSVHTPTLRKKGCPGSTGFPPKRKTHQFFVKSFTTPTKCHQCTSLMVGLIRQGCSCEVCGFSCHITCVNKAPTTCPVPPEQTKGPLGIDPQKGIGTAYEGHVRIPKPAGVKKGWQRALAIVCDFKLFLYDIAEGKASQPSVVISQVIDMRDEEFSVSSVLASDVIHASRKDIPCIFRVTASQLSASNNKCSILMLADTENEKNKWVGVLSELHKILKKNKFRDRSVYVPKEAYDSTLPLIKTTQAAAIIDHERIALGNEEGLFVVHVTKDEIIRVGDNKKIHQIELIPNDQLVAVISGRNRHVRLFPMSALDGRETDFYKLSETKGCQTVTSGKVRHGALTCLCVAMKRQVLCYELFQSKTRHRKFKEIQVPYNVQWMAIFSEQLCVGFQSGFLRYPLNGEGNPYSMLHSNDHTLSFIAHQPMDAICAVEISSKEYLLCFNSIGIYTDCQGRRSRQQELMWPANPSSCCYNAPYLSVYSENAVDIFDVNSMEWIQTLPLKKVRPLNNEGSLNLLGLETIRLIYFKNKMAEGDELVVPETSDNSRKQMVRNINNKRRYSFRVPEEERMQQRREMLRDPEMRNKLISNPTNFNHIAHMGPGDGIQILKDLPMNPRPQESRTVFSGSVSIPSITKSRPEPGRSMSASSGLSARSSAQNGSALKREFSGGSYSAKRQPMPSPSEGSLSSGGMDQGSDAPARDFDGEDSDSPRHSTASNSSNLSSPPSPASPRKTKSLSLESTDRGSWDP

dTm 33 [1]: 3.5 °C | dTm 33 [2]: -0.2 °C | dTm 33 [3]: 1.9 °C | dTm 33 [4]: 1.3 °C | dTm 33 [5]: 2.0 °C | dTm 33 [6]: -1.4 °C | dTm 33 [7]: 4.7 °C | dTm 33 [8]: 5.9 °C | dTm 33 [9]: 10.0 °C | dTm 33 [10]: 5.3 °C | dTm 33 [11]: 3.0 °C | dTm 33 [12]: 3.3 °C
SMILES: Cc1cccc(-c2ccc(-c3cc4cnc(Nc5ccc(F)c(CO)c5)nc4n(CCCCN)c3=O)c(Cl)c2)n1 [compound 33, 8-(4-Aminobutyl)-6-(2-chloro-4-(6-methylpyridin-2-yl)phenyl)-2-((4-fluoro-3-(hydroxymethyl)phenyl)amino)pyrido[2,3-d]pyrimidin-7(8H)-one]

dTm 34 [1]: 2.4 °C | dTm 34 [2]: 0.1 °C | dTm 34 [3]: 0.8 °C | dTm 34 [4]: 2.9 °C | dTm 34 [5]: 0.9 °C | dTm 34 [6]: -1.0 °C | dTm 34 [7]: 3.0 °C | dTm 34 [8]: 3.9 °C | dTm 34 [9]: 8.0 °C | dTm 34 [10]: 3.4 °C | dTm 34 [11]: 0.3 °C | dTm 34 [12]: 0.8 °C
SMILES: COc1ccc(O)c(Nc2ncc3cc(-c4ccc(-c5cccc(C)n5)cc4Cl)c(=O)n(CCCCN)c3n2)c1 [compound 34, 8-(4-Aminobutyl)-6-(2-chloro-4-(6-methylpyridin-2-yl)phenyl)-2-((2-hydroxy-5-methoxy-phenyl)amino)pyrido[2,3-d]pyrimidin-7(8H)-one]

dTm 35 [1]: 3.8 °C | dTm 35 [2]: -0.5 °C | dTm 35 [3]: -2.1 °C | dTm 35 [4]: 7.8 °C | dTm 35 [5]: 0.4 °C | dTm 35 [6]: -2.4 °C | dTm 35 [7]: 3.8 °C | dTm 35 [8]: 5.8 °C | dTm 35 [9]: 7.6 °C | dTm 35 [10]: 5.8 °C | dTm 35 [11]: 0.1 °C | dTm 35 [12]: 2.7 °C
SMILES: COc1cc(N2CCOCC2)ccc1Nc1ncc2cc(-c3ccc(-c4cccc(C)n4)cc3Cl)c(=O)n(CCCCN)c2n1 [compound 35, 8-(4-Aminobutyl)-6-(2-chloro-4-(6-methylpyridin-2-yl)phenyl)-2-((2-methoxy-4-morpholino-phenyl)amino)pyrido[2,3-d]pyrimidin-7(8H)-one]

dTm 36 [1]: 3.0 °C | dTm 36 [2]: 0.0 °C | dTm 36 [3]: -0.9 °C | dTm 36 [4]: 4.3 °C | dTm 36 [5]: 2.0 °C | dTm 36 [6]: -1.4 °C | dTm 36 [7]: 3.7 °C | dTm 36 [8]: 5.6 °C | dTm 36 [9]: 6.9 °C | dTm 36 [10]: 5.0 °C | dTm 36 [11]: -0.3 °C | dTm 36 [12]: 1.5 °C
SMILES: COc1cc(N2CCN(C)CC2)ccc1Nc1ncc2cc(-c3ccc(-c4cccc(C)n4)cc3Cl)c(=O)n(CCCCN)c2n1 [compound 36, 8-(4-Aminobutyl)-6-(2-chloro-4-(6-methylpyridin-2-yl)phenyl)-2-((2-methoxy-4-(4-methylpiperazin-1-yl)phenyl)amino)pyrido[2,3-d]pyrimidin-7(8H)-one]
